The target of experiment [1] is T1, PI3K-α (PIK3CA) wild-type (WT), p110α/p85α complex (Homo sapiens, UniProt P42336).
T1 construct: Recombinant, catalytically active human full length PIK3KA Wild-type and H1047R mutant; 6×His (N); purchased EMD Millipore Sigma 14-602M
The experiment can be described thus: PI3K-alpha kinase (PIK3CA) biochemical activity, ADP-Glo, wild-type. The following applies: Soy PI lipid substrate. The essentials: (§1)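 ADP formation measured by ADP-Glo luminescence after reaction at 27 °C to about 10% ATP turnover, using 20 uM ATP, 50 uM PIP2diC8 or soy PI lipid, HEPES pH 7.4 with MgCl2. Enzyme (1-5 nM WT or H1047R p110α/p85α) and compound preincubated 1 h first; 10-point 1:3 curves fitted four-parameter for IC50.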
(In general: ADP-Glo turns the ADP formed in a reaction into a luminescent signal.)

Experiment [2] has as its target T2, PI3K-α (PIK3CA) H1047R mutant, p110α/p85α complex (Homo sapiens, UniProt P42336, H1047R).
T2 construct: Recombinant, catalytically active human full length PIK3KA Wild-type and H1047R mutant; 6×His (N); purchased EMD Millipore Sigma 14-792M
As to the kind of experiment: PI3K-alpha kinase (PIK3CA) biochemical activity, ADP-Glo, H1047R mutant. The following applies: Soy PI lipid substrate. The essentials: as §1

The target of experiment [3] is PI3K-α (PIK3CA) in MDA-MB-453 cells (Homo sapiens, UniProt P42336). The experiment can be described thus: PI3K-alpha kinase (PIK3CA) in vitro cell based assay, MDA-MB-453 cells, SureFire Ultra AlphaLisa. The following applies: read-out: PI3K-α (PIK3CA) in vitro cell based assay IC50. A digest of the protocol: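 Cells treated 3 h in serum-free MEM with 1 μg/mL insulin, 10-point 1:3 series in 0.3% DMSO, then lysed for SureFire Ultra AlphaLisa read-out. Inhibition normalized to DMSO (max) and 1 μM GDC-0032 (min); duplicate averages fitted by 4-parameter logistic for relative IC50.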
Sequence of PI3K-α (PIK3CA) in MDA-MB-453 cells (P27986 2-724): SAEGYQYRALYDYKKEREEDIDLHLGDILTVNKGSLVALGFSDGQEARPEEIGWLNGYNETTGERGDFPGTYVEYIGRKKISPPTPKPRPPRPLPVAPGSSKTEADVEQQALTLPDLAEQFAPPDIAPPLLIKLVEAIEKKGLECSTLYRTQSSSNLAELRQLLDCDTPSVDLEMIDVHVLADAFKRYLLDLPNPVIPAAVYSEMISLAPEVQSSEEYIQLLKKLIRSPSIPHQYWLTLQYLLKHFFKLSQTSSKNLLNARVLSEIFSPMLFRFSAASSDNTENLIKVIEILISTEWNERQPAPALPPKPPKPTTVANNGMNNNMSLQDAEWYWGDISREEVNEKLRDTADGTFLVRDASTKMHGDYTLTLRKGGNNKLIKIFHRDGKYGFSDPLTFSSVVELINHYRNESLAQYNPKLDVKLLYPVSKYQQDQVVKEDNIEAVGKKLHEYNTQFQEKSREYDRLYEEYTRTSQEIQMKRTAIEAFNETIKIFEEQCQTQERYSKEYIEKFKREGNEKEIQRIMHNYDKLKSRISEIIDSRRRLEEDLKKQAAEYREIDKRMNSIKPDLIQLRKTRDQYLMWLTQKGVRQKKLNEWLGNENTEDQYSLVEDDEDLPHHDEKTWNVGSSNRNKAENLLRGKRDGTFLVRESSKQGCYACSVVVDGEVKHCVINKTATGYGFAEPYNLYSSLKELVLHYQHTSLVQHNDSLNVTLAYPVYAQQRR
Sequence of PI3K-α (PIK3CA) in MDA-MB-453 cells (P42336 whole entry): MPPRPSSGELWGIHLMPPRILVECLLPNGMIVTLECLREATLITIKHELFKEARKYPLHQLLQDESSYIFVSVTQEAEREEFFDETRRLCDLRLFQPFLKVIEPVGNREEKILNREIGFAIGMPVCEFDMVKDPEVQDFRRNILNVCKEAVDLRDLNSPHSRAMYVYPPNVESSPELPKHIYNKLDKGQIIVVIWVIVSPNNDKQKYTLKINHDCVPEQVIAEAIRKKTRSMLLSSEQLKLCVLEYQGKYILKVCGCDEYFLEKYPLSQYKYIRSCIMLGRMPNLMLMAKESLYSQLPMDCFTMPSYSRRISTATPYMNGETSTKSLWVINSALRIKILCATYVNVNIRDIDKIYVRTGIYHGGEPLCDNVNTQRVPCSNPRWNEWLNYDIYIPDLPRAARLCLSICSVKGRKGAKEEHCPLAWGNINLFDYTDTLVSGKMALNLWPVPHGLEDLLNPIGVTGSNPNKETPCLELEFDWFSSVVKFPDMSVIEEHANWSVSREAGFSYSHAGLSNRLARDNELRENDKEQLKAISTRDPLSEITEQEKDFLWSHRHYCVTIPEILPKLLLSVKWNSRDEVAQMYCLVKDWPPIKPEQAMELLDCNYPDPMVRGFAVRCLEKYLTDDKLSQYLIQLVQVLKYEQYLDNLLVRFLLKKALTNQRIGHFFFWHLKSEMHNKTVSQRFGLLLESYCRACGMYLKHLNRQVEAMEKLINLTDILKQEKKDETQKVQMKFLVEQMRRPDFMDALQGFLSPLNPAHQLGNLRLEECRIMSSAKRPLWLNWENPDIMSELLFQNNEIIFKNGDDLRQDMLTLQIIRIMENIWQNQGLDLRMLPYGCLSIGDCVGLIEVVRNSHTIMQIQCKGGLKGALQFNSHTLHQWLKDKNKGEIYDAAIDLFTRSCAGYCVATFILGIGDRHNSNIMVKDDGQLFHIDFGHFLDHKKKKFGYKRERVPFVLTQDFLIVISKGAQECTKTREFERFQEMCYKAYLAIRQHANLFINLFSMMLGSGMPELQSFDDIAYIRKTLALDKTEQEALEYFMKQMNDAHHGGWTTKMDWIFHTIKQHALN
In general terms: Bead proximity is the source of the signal in Alpha formats.

Structures are written as SMILES.

T2 sequence (P42336 whole entry H1047R): as the sequence (P42336 whole entry) above, with H1047R counted along it
T2 sequence (P27986 whole entry partner): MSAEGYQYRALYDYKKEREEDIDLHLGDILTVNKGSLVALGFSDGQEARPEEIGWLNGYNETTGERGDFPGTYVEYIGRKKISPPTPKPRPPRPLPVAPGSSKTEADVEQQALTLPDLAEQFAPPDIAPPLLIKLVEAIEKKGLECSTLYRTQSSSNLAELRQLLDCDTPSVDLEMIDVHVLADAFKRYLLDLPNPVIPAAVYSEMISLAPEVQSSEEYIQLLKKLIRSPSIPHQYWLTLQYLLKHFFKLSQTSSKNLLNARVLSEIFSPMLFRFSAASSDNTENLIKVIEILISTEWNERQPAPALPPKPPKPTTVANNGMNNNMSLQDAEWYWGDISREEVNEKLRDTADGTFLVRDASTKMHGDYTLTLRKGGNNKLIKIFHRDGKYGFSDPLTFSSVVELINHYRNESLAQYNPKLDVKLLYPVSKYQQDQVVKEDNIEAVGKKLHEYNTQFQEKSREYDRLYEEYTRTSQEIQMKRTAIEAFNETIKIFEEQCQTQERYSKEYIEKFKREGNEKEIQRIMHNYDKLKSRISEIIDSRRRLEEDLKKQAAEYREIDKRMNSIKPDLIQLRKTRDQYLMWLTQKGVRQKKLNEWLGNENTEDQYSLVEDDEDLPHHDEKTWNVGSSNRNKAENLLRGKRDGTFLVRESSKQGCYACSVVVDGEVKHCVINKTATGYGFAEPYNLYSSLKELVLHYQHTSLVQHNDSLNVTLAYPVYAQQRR

The term IC50 denotes the concentration needed to halve the response being measured. For the molecule `Cc1cc([C@@H](C)Nc2ccc(Cl)nc2C(=O)O)c2oc(-c3cc4cnccc4o3)c(C)c(=O)c2c1` [Example 214, 6-Chloro-3-[[(1R)-1-(2-furo[3,2-c]pyridin-2-yl-3,6-dimethyl-4-oxo-chromen-8-yl)ethyl]amino]pyridine-2-carboxylic acid], the IC50 was below 500 nM in experiment [1], below 500 nM in experiment [2] and below 50 nM in experiment [3].
Consider `Cc1cn2cc(-c3cc(=O)c4cc(F)cc(C(C)Nc5ccccc5C(=O)O)c4o3)ccc2n1` (single isomer, unassigned) [Example 51, 2-[1-[6-Fluoro-2-(2-methylimidazo[1,2-a]pyridin-6-yl)-4-oxo-chromen-8-yl]ethylamino]benzoic acid], for which the IC50 in experiment [1] was 1000 to 5000 nM; in experiment [2], below 500 nM; in experiment [3], below 50 nM.
As for `Cc1cc([C@@H](C)Nc2ccc(Cl)nc2C(=O)O)c2oc(-c3cc4cccnc4[nH]3)c(C)c(=O)c2c1` [Example 247, 6-Chloro-3-[[(1R)-1-[3,6-dimethyl-4-oxo-2-(1H-pyrrolo[2,3-b]pyridin-2-yl)chromen-8-yl]ethyl]amino]pyridine-2-carboxylic acid], the results for the half-inhibitory concentration (IC50) in experiment [1], in experiment [2] and in experiment [3] were below 500 nM, below 500 nM and below 50 nM, respectively.
In the case of `Cc1cc([C@@H](C)Nc2cccc(F)c2C(=O)O)c2oc(-c3ccc4nc(C)cn4c3)c(C)c(=O)c2c1` [Example 229, 2-[[(1R)-1-[3,6-Dimethyl-2-(2-methylimidazo[1,2-a]pyridin-6-yl)-4-oxo-chromen-8-yl]ethyl]amino]-6-fluoro-benzoic acid], the IC50 in experiment [1] is below 500 nM; in experiment [2] it was below 500 nM; in experiment [3], 100 to 500 nM.
For the molecule `Cc1cc(C(C)Nc2ccccc2C(=O)O)c2oc(-c3cc4cn(C)nc4cn3)cc(=O)c2c1` (single isomer, unassigned) [Example 160, 2-[1-[6-Methyl-2-(2-methylpyrazolo[3,4-c]pyridin-5-yl)-4-oxo-chromen-8-yl]ethylamino]benzoic acid], the IC50 in experiment [1] was 1000 to 5000 nM; in experiment [2], below 500 nM; in experiment [3] it was 50 to 100 nM.
Taken in the same sequence, the figures for `Cc1cc(C(C)Nc2ccccc2C(=O)O)c2oc(-c3cnn4ccccc34)cc(=O)c2c1` (single isomer, unassigned) [Example 125, 2-[1-(6-Methyl-4-oxo-2-pyrazolo[1,5-a]pyridin-3-yl-chromen-8-yl)ethylamino]benzoic acid] were 1000 to 5000 nM, below 500 nM and below 50 nM.
Taken in the same sequence, the figures for `Cc1cc(C(C)Nc2ccccc2C(=O)O)c2oc(-c3ccc4c(C)nn(C)c4c3)cc(=O)c2c1` (single isomer, unassigned) [Example 27, 2-[1-[2-(1,3-Dimethylindazol-6-yl)-6-methyl-4-oxo-chromen-8-yl]ethylamino]benzoic acid] were 500 to 1000 nM, below 500 nM and below 50 nM.
Turning to `Cc1cc([C@@H](C)Nc2ccc(F)cc2C(=O)O)c2oc(-c3ccc4cnn(C)c4c3)cc(=O)c2c1` [Example 238, 5-Fluoro-2-[[(1R)-1-[6-methyl-2-(1-methylindazol-6-yl)-4-oxo-chromen-8-yl]ethyl]amino]benzoic acid], the IC50 is below 500 nM in experiment [1], below 500 nM in experiment [2] and below 50 nM in experiment [3].
For `Cc1cc([C@@H](C)Nc2ccc(Cl)nc2C(=O)O)c2oc(-c3cc4ccccc4[nH]3)c(C)c(=O)c2c1` [Example 196, 6-Chloro-3-[[(1R)-1-[2-(1H-indol-2-yl)-3,6-dimethyl-4-oxo-chromen-8-yl]ethyl]amino]pyridine-2-carboxylic acid], the half-inhibitory concentration (IC50) is 1000 to 5000 nM in experiment [1], below 500 nM in experiment [2] and below 50 nM in experiment [3].
The like results for `Cc1cc([C@@H](C)Nc2ccccc2C(=O)O)c2oc(-c3cc4cnccc4s3)c(C)c(=O)c2c1` [Example 203, 2-[[(1R)-1-(3,6-Dimethyl-4-oxo-2-thieno[3,2-c]pyridin-2-yl-chromen-8-yl)ethyl]amino]benzoic acid] were, in that order, below 500 nM, below 500 nM and below 50 nM.
With `Cc1cc(C(C)Nc2ccc(Cl)nc2C(=O)O)c2oc(-c3ccc4c(c3)c(C)nn4C)cc(=O)c2c1` (single isomer, unassigned) [Example 224, 6-Chloro-3-[1-[2-(1,3-dimethylindazol-5-yl)-6-methyl-4-oxo-chromen-8-yl]ethylamino]pyridine-2-carboxylic acid], the 50% inhibitory concentration (IC50) in experiment [1] is below 500 nM; in experiment [2], below 500 nM; in experiment [3] it was below 50 nM.
As for `Cc1cc([C@@H](C)Nc2ccc(Cl)nc2C(=O)O)c2oc(-c3ccc4nc(C)sc4n3)c(C)c(=O)c2c1` [Example 242, 6-Chloro-3-[[(1R)-1-[3,6-dimethyl-2-(2-methylthiazolo[5,4-b]pyridin-5-yl)-4-oxo-chromen-8-yl]ethyl]amino]pyridine-2-carboxylic acid], the figures for the 50% inhibitory concentration (IC50) in experiment [1], in experiment [2] and in experiment [3] were 500 to 1000 nM, below 500 nM and below 50 nM, respectively.
Taken in the same sequence, the figures for `Cc1cc(C(C)Nc2ccccc2C(=O)O)c2oc(-c3ccc4c(cnn4C)c3)c(C)c(=O)c2c1` (single isomer, unassigned) [Example 150, 2-[1-[3,6-Dimethyl-2-(1-methylindazol-5-yl)-4-oxo-chromen-8-yl]ethylamino]benzoic acid] were below 500 nM, below 500 nM and below 50 nM.
The like results for `Cc1cc(C(C)Nc2ccc(Cl)nc2C(=O)O)c2oc(-c3cc(C)c4nn(C)cc4c3)cc(=O)c2c1` (single isomer, unassigned) [Example 188, 6-Chloro-3-[1-[2-(2,7-dimethylindazol-5-yl)-6-methyl-4-oxo-chromen-8-yl]ethylamino]pyridine-2-carboxylic acid] were, in that order, 500 to 1000 nM, below 500 nM and below 50 nM.
As for `Cc1cc(C(C)Nc2ccccc2C(=O)O)c2oc(-c3cccc4ocnc34)cc(=O)c2c1` (single isomer, unassigned) [Example 110, 2-[1-[2-(1,3-Benzoxazol-4-yl)-6-methyl-4-oxo-chromen-8-yl]ethylamino]benzoic acid], the values for the IC50 in experiment [1], in experiment [2] and in experiment [3] were 5000 to 10000 nM, below 500 nM and below 50 nM, respectively.
The like results for `Cc1cc(C(C)Nc2ccccc2C(=O)O)c2oc(-c3cc(C)c4nn(C)cc4c3)cc(=O)c2c1` (single isomer, unassigned) [Example 126, 2-[1-[2-(2,7-Dimethylindazol-5-yl)-6-methyl-4-oxo-chromen-8-yl]ethylamino]benzoic acid] were, in that order, 1000 to 5000 nM, below 500 nM and below 50 nM.
`Cc1cc(C(C)Nc2ccccc2C(=O)O)c2oc(-c3ccn4nncc4c3)cc(=O)c2c1` (single isomer, unassigned) [Example 58, 2-[1-[6-Methyl-4-oxo-2-(triazolo[1,5-a]pyridin-5-yl)chromen-8-yl]ethylamino]benzoic acid]: the values for the half-inhibitory concentration (IC50) in experiment [1], in experiment [2] and in experiment [3] were 1000 to 5000 nM, below 500 nM and 100 to 500 nM, respectively.
The like results for `Cc1cc(-c2cc(=O)c3cc(C(F)(F)F)cc(C(C)Nc4ccc(Cl)nc4C(=O)O)c3o2)cc2cn(C)nc12` (single isomer, unassigned) [Example 191, 6-Chloro-3-[1-[2-(2,7-dimethylindazol-5-yl)-4-oxo-6-(trifluoromethyl)chromen-8-yl]ethylamino]pyridine-2-carboxylic acid] were, in that order, 500 to 1000 nM, below 500 nM and 100 to 500 nM.
Taken in the same sequence, the figures for `Cc1cc([C@@H](C)Nc2cccc(F)c2C(=O)O)c2oc(-c3nn(C)c4ccccc34)c(C)c(=O)c2c1` [Example 230, 2-[[(1R)-1-[3,6-Dimethyl-2-(1-methylindazol-3-yl)-4-oxo-chromen-8-yl]ethyl]amino]-6-fluoro-benzoic acid] were below 500 nM, below 500 nM and 50 to 100 nM.
In the case of `Cc1cc(C(C)Nc2cccc(F)c2C(=O)O)c2oc(-c3nn(C)c4ccccc34)cc(=O)c2c1` (single isomer, unassigned) [Example 189, 2-Fluoro-6-[1-[6-methyl-2-(1-methylindazol-3-yl)-4-oxo-chromen-8-yl]ethylamino]benzoic acid], the IC50 in experiment [1] was 500 to 1000 nM; in experiment [2], below 500 nM; in experiment [3], 50 to 100 nM.
With `Cc1cc(C(C)Nc2ccccc2C(=O)O)c2oc(-c3ccc4nc(C(F)(F)F)cn4c3)cc(=O)c2c1` (single isomer, unassigned) [Example 70, 2-[1-[6-Methyl-4-oxo-2-[2-(trifluoromethyl)imidazo[1,2-a]pyridin-6-yl]chromen-8-yl]ethylamino]benzoic acid], the half-maximal inhibitory concentration (IC50) is 1000 to 5000 nM in experiment [1], below 500 nM in experiment [2] and 50 to 100 nM in experiment [3].
With `Cc1cc([C@@H](C)Nc2ccc(F)c(F)c2C(=O)O)c2oc(-c3ccc4nn(C)cc4c3)c(C)c(=O)c2c1` [Example 204, 6-[[(1R)-1-[3,6-Dimethyl-2-(2-methylindazol-5-yl)-4-oxo-chromen-8-yl]ethyl]amino]-2,3-difluoro-benzoic acid], the IC50 was 500 to 1000 nM in experiment [1], below 500 nM in experiment [2] and 50 to 100 nM in experiment [3].

(Values after US11878970B2, “Allosteric chromenone inhibitors of phosphoinositide 3-kinase (PI3K) for the treatment of disease” (Petra Pharma Corporation, priority 2021, dated 2024).)
